Data: patent publication US20210353701A1, “ULTRAVIOLET LIGHT-INDUCED INFLAMMATION SUPPRESSING AGENT COMPRISING ALTERNATIVE AUTOPHAGY INDUCING AGENT” (Shiseido Company, Ltd., priority 2018, published 2021)

Legend:
[1] = system: Normal human epidermal keratinocytes (NHEK); experiment: IL-1β production after ultraviolet irradiation in NHEK treated with autophagy inhibitor or inducing agent (ELISA); format: cell-based; conditions: 3-MA 1 mM; UV 290 to 315 nm, 20 mJ/cm^2; culture supernatant after 48 hours
Procedure: Normal human epidermal keratinocytes (NHEK) (Kurabo Industries, Ltd.) were seeded in a 6-well plate and cultured to subconfluence using epidermal keratinocyte growth medium (EpiLife-KG2; Gibco Co). The medium was then exchanged with medium containing 3-methyladenine (3-MA) (by R&D Co., final concentration: 1 mM), as a known autophagy inhibitor and medium containing rapamycin (by Enzo Life Science, final concentration: 0.5 μM) as a known autophagy inducing agent, and culturing was continued for 3 hours. After culturing, the medium was discarded, PBS was added and irradiation was carried out with ultraviolet rays (290 to 315 nm) at a radiation intensity of 20 mJ/cm^2. Following ultraviolet irradiation, culturing was continued under the medium conditions described above including 3-MA or rapamycin, and after 48 hours the culture supernatant of each was obtained. The IL-1β concentration of the obtained culture supernatant was evaluated using a Quantikine Human IL-1β ELISA Kit (R&D co.) (FIGS. 1A and B). Statistical significance testing was conducted using Student's or Welch's t test.

NHEK cells = experiment: IL-1β production after ultraviolet irradiation in siRNA-treated NHEK cells (ELISA); format: cell-based, human; conditions: siRNA 200 nM; UV 290 to 315 nm, 15 mJ/cm^2; culture supernatant after 48 hours
Procedure: (§1) An Amaxa Human Keratinocyte Nucleofector Kit (Lonza) was used to transfect NHEK cells (8.0×10^5 cells) with siRNA to a final concentration of 200 nM. The knockdown efficiency was confirmed by the mRNA expression level of Atg5, Atg7 and Beclin1 using an RT-PCR method (FIGS. 2A, B and C). The RT-PCR primers used were primers by Sigma-Aldrich, and GAPDH (Sigma-Aldrich) was used as an internal standard for standardization of the expression levels.
The siRNA-treated NHEK cells were seeded into a 6-well plate and cultured for 24 hours. The medium was then discarded, PBS was exchanged, and irradiation was carried out with ultraviolet rays (290 to 315 nm) at a radiation intensity of 15 mJ/cm^2. Following ultraviolet irradiation, the medium was again exchanged and culturing was continued for 48 hours to obtain a culture supernatant. The IL-1β concentration of the obtained culture supernatant was evaluated using a Quantikine Human IL-1β ELISA Kit (R&D co.) (FIGS. 3A, B and C). Student's t-test was used as the statistical significance test.

Atg5 = experiment: siRNA knockdown efficiency by RT-PCR, Atg5; format: cell-based, human; conditions: siRNA 200 nM in NHEK cells, GAPDH internal standard
Procedure: as §1

Atg7 = experiment: siRNA knockdown efficiency by RT-PCR, Atg7; format: cell-based, human; conditions: siRNA 200 nM in NHEK cells, GAPDH internal standard
Procedure: as §1

Beclin1 = experiment: siRNA knockdown efficiency by RT-PCR, Beclin1; format: cell-based, human; conditions: siRNA 200 nM in NHEK cells, GAPDH internal standard
Procedure: as §1

## Cn1cnc(N)c2ncnc1-2 [3-methyladenine]
[1]
  IL-1β concentration after ultraviolet irradiation, increase: approximately 3 fold

## Atg5-targeted siRNA: siRNA for Atg5 purchased from Invitrogen, SEQ ID NO: 1 and 2 (chain 1 GGUUUGGACGAAUUCCAACUUGUUU; chain 2 AAACAAGUUGGAAUUCGUCCAAACC; listed as RNA, chemistry not given here)
NHEK cells
  IL-1β production induced by ultraviolet ray: unchanged
Atg5
  Atg5 expression (mRNA): suppressed

## Atg7-targeted siRNA: siRNA for Atg7 purchased from Invitrogen, SEQ ID NO: 3 and 4 (chain 1 GCCGUCAUUGCUGCAAGCAAGAGAA; chain 2 UUCUCUUGCUUGCAGCAAUGACGGC; listed as RNA, chemistry not given here)
NHEK cells
  IL-1β production induced by ultraviolet ray: unchanged
Atg7
  Atg7 expression (mRNA): suppressed

## Beclin1-targeted siRNA: siRNA for Beclin1 purchased from Invitrogen, SEQ ID NO: 5 and 6 (chain 1 CCAAUAAGAUGGGUCUGAAAUUUCA; chain 2 UGAAAUUUCAGACCCAUCUUAUUGG; listed as RNA, chemistry not given here)
NHEK cells
  IL-1β production induced by ultraviolet ray: significantly increased
Beclin1
  Beclin1 expression (mRNA): suppressed
